One block for each molecule: values may come before it.
Tests used:
U-937 = assay: Antiproliferative activity against human U-937 cells assessed as reduction cell viability incubated for 48 hrs by MTT assay; type: functional, cell-based; details: U-937, 48 h
Raji = assay: Antiproliferative activity against human Raji cells assessed as reduction cell viability incubated for 48 hrs by MTT assay; type: functional, cell-based
PC-3 [1] = assay: Antiproliferative activity against human PC-3 cells assessed as reduction cell viability incubated for 48 hrs by MTT assay; type: functional, cell-based; details: PC-3, 48 h
MDA-MB-231 [2] = assay: Antiproliferative activity against human MDA-MB-231 cells assessed as reduction cell viability incubated for 48 hrs by MTT assay; type: functional, cell-based; details: MDA-MB-231, 48 h
[3] = Antiproliferative activity against human RPMI cells assessed as reduction cell viability incubated for 48 hrs by MTT assay; type: functional, cell-based
[4] = target: DNA (cytosine-5)-methyltransferase 1 (Homo sapiens, UniProt P26358); assay: Inhibition of human recombinant full-length N-terminal GST tagged DNMT1 (2 to 1632 residues) expressed in Sf9 insect cells using poly(dI-dC) as substrate by hotspot assay
Chain of DNA (cytosine-5)-methyltransferase 1 (P26358 whole entry, the tested form may be a part): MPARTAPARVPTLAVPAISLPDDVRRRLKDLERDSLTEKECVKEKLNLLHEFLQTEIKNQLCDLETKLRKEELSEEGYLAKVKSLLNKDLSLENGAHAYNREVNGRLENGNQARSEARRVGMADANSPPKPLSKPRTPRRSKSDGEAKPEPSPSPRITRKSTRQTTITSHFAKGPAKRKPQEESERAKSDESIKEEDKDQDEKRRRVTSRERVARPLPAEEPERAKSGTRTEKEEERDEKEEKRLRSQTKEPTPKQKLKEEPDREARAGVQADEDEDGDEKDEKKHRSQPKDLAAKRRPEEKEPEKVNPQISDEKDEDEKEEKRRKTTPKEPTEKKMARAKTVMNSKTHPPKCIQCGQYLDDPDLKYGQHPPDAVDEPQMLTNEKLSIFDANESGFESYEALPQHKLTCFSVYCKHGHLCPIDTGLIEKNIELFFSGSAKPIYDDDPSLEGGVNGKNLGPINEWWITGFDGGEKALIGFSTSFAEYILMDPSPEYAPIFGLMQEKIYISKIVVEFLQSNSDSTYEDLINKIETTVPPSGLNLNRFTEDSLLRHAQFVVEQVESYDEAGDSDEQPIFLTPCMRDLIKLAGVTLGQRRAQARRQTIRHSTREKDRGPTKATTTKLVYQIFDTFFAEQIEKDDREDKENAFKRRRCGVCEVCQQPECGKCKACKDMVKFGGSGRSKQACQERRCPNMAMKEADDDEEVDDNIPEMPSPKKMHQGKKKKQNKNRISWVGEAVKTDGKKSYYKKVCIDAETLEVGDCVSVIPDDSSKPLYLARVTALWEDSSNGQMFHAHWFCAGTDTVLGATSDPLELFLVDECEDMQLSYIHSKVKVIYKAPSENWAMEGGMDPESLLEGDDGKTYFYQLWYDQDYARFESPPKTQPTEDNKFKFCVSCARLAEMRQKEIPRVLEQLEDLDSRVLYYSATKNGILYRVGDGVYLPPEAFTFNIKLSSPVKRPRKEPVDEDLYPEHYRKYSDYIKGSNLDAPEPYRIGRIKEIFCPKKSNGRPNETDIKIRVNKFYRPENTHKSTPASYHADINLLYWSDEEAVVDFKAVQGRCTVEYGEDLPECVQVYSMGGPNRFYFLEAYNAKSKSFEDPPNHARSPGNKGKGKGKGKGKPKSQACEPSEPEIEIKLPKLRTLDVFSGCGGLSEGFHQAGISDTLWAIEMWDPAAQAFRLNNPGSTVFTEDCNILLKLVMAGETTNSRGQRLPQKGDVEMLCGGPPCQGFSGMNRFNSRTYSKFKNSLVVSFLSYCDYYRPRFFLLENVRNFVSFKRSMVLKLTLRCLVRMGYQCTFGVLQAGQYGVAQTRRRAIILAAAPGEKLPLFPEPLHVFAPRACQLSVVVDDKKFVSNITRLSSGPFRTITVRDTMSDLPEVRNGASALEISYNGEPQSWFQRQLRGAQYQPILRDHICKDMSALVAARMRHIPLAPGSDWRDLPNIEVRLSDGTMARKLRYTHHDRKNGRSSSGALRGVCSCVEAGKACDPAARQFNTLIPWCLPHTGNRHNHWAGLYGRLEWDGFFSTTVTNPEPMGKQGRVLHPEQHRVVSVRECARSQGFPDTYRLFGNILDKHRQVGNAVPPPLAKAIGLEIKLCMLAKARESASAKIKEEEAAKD

[5] = target: DNA (cytosine-5)-methyltransferase 3A (Homo sapiens, UniProt Q9Y6K1); assay: Inhibition of human recombinant DNMT3A (214 to 912 residues)expressed in Sf9 insect cells using lambda DNA as substrate by scintillation/filter plate assay
Chain of DNA (cytosine-5)-methyltransferase 3A (Q9Y6K1 whole entry, looked up, the tested form may be a part): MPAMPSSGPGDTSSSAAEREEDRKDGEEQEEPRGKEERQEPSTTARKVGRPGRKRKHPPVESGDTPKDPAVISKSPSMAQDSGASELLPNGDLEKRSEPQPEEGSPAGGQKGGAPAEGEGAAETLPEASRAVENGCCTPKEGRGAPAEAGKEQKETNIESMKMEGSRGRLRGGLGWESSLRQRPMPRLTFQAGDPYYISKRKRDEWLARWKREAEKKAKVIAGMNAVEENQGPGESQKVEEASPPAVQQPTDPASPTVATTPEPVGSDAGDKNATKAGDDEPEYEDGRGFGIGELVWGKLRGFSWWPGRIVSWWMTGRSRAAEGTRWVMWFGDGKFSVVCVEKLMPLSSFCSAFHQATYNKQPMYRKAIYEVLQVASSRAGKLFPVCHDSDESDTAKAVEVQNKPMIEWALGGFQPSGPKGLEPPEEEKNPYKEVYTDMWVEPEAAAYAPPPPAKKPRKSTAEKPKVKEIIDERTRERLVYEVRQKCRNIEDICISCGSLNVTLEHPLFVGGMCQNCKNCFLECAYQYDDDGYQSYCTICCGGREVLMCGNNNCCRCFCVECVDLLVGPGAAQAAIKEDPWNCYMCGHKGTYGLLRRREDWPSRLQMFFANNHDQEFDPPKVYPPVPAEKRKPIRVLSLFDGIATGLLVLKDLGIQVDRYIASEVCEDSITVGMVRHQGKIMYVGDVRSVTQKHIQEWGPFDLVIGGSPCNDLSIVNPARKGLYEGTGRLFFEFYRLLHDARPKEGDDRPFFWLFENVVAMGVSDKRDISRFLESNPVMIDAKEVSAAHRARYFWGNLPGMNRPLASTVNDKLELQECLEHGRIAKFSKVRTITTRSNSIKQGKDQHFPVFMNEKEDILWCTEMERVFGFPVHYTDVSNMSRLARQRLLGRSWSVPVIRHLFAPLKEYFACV

HCT-116 [6] = assay: Antiproliferative activity against human HCT-116 cells; type: functional, cell-based
A549 [7] = assay: Antiproliferative activity against human A549 cells; type: functional, cell-based
[8] = target: Histone-lysine N-methyltransferase SMYD3 (Homo sapiens, UniProt Q9H7B4); assay: Inhibition of SMYD3 (unknown origin)
Chain of Histone-lysine N-methyltransferase SMYD3 (Q9H7B4 whole entry): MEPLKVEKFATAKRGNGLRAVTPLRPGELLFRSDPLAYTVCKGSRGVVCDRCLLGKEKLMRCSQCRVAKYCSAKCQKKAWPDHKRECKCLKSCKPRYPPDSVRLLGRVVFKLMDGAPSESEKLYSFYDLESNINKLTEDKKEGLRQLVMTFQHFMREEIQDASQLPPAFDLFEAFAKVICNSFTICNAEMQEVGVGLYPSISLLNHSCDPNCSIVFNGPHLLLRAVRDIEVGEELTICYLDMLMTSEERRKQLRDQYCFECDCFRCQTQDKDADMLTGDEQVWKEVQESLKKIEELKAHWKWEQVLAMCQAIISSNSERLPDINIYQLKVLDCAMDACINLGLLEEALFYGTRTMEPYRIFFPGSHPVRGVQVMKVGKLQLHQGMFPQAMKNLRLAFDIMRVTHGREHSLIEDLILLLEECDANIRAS

HepG2 [9] = assay: Antiproliferative activity against human HepG2 cells; type: functional, cell-based
HPAC = assay: Antiproliferative activity against human HPAC cells; type: functional, cell-based
CFPAC-1 = assay: Antiproliferative activity against human CFPAC-1 cells; type: functional, cell-based
MIA PaCa-2 = assay: Antiproliferative activity against human MIA PaCa-2 cells; type: functional, cell-based
HeLa = assay: Antiproliferative activity against human HeLa cells; type: functional, cell-based
HT-1080 = assay: Antiproliferative activity against human HT-1080 cells; type: functional, cell-based
U2OS = assay: Antiproliferative activity against human U2OS cells; type: functional, cell-based
WI-38 = assay: Antiproliferative activity against human WI-38 cells; type: functional, cell-based
MGC-803 = assay: Cytotoxicity against human MGC-803 cells; type: functional, cell-based
HepG2 [10] = assay: Cytotoxicity against human HepG2 cells; type: functional, cell-based
T-24 = assay: Cytotoxicity against human T24 cells; type: functional, cell-based
NCI-H460 = assay: Cytotoxicity against human NCI-H460 cells; type: functional, cell-based
[11] = Antiproliferative activity against human MED-MEB-8A cells; type: functional, cell-based
MCF7 = assay: Antiproliferative activity against human MCF7 cells; type: functional, cell-based
B16-F10 = assay: Antiproliferative activity against mouse B16-F10 cells; type: functional, cell-based
Jurkat E6.1 = assay: Antiproliferative activity against human Jurkat E6.1 cells; type: functional, cell-based
Histone deacetylase 8 = Histone deacetylase 8 (Homo sapiens, UniProt Q9BY41); assay: Inhibition of HDAC8 (unknown origin)
Chain of Histone deacetylase 8 (Q9BY41 whole entry): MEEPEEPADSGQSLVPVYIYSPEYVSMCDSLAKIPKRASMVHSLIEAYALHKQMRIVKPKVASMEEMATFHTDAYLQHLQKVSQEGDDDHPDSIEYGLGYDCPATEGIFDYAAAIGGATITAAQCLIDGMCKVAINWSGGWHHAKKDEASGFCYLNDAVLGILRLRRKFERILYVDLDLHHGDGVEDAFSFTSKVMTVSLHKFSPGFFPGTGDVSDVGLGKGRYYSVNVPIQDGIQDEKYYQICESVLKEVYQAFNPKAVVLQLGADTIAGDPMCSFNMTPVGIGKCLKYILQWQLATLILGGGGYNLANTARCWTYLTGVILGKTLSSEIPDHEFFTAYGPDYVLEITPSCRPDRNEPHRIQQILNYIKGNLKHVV

[12] = target: Protein deacetylase HDAC6 (Homo sapiens, UniProt Q9UBN7); assay: Inhibition of HDAC6 (unknown origin)
PC-3 [13] = assay: Antiproliferative activity against human PC-3 cells; type: functional, cell-based
DNA topoisomerase 1 [14] = target: T1, DNA topoisomerase 1 (Homo sapiens, UniProt P11387); assay: Inhibition of topoisomerase 1 (unknown origin)
T1 sequence (P11387 whole entry): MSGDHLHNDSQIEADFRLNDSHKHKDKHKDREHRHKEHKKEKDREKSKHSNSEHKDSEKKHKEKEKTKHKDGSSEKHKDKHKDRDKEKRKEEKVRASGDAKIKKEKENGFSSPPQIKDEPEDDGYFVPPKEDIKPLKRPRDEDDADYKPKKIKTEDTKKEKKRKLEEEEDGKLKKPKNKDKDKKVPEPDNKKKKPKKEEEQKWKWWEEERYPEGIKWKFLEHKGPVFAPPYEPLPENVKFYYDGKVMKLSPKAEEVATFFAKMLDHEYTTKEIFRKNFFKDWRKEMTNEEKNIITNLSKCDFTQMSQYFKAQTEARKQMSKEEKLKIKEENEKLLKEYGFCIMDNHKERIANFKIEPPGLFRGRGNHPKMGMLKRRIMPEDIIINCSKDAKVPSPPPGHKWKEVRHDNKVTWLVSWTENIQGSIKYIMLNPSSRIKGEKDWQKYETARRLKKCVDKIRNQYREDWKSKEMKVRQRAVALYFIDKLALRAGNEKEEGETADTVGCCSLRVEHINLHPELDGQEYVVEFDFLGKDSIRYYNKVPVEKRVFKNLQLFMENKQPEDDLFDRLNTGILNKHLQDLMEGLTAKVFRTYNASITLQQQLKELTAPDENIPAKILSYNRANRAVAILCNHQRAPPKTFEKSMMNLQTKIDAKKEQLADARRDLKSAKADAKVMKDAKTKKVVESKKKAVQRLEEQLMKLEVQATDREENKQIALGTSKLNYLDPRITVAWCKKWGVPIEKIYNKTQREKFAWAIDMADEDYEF

[15] = Inhibition of topoisomerase 2 (unknown origin); design: species or system Homo sapiens
[16] = Antiproliferative activity against mouse P338 cells; type: functional, cell-based
KB = assay: Antiproliferative activity against human KB cells; type: functional, cell-based
MDA-MB-231 [17] = assay: Cytotoxicity against human MDA-MB-231 cells at 1 uM by MTT assay; type: functional
SR = assay: Cytotoxicity against human SR cells incubated for 24 hrs by MTT assay; type: functional
HL-60 = assay: Cytotoxicity against human HL-60 cells incubated for 24 hrs by MTT assay; type: functional
MDA-MB-435 = assay: Cytotoxicity against human MDA-MB-435 cells incubated for 24 hrs by MTT assay; type: functional
DNA topoisomerase 1 [18] = target: T1, DNA topoisomerase 1; assay: Inhibition of human topoisomerase 1 incubated for 2 hrs by ELISA analysis
[19] = target: Hepatocyte growth factor receptor (Homo sapiens, UniProt P08581); assay: Inhibition of c-MET (unknown origin)
Chain of Hepatocyte growth factor receptor (P08581 whole entry): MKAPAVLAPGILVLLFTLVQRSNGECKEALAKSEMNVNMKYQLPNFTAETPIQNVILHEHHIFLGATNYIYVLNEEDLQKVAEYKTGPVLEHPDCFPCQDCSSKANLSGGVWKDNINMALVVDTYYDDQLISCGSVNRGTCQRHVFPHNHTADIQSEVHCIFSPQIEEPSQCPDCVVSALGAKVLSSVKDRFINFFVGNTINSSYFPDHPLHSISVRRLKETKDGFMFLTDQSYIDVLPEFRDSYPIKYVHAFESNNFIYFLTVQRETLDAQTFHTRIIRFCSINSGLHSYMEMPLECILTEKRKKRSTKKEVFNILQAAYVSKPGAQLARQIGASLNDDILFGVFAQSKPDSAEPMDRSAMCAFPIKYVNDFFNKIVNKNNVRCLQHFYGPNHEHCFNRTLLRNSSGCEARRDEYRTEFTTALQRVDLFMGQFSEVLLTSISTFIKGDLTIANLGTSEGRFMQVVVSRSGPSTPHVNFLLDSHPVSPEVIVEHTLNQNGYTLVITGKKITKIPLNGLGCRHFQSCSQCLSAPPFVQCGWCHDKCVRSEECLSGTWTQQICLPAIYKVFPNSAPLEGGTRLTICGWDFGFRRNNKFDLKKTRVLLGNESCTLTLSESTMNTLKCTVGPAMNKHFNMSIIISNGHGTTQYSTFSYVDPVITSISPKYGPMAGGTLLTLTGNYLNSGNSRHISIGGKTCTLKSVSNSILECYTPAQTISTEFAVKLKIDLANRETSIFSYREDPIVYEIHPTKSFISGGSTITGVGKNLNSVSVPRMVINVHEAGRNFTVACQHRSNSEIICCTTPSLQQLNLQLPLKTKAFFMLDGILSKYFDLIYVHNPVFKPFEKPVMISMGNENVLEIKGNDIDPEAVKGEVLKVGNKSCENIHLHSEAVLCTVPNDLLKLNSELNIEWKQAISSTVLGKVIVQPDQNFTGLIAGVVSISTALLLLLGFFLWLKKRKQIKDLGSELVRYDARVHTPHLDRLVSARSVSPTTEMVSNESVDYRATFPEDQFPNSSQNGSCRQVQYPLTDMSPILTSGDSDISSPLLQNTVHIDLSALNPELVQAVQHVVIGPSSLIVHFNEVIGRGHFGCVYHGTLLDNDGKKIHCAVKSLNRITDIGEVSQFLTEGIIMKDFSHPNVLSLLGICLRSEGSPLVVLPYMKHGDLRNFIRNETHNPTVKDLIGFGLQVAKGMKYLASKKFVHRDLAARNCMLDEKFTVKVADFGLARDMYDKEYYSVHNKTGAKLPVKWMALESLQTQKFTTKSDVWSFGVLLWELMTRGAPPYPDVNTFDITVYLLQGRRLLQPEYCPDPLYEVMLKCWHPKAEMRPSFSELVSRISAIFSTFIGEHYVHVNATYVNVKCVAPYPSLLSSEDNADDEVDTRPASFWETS

HCT-116 [20] = assay: Cytotoxicity against human HCT-116 cells assessed as inhibition of cell growth incubated for 72 hrs by MTT assay; type: functional, cell-based; details: HCT-116, 72 h
A549 [21] = assay: Cytotoxicity against human A549 cells incubated for 72 hrs by MTT assay; type: functional, cell-based; details: A549, 72 h

IC50 (U-937): 400 nM
IC50 (Raji): 400 nM
IC50 (PC-3 [1]): 900 nM
IC50 (MDA-MB-231 [2]): 900 nM
IC50 [4]: 67000 nM
IC50 [5]: 17000 nM
Compound: O=C(Nc1ccc(NC(=O)c2ccc(Nc3ccnc4ccccc34)cc2)cc1)OCc1ccccc1
IC50 [3]: 2400 nM

IC50 (HCT-116 [6]): 11000 nM
IC50 (A549 [7]): 11000 nM
IC50 [8]: 40 nM
IC50 (HepG2 [9]): 11000 nM
Compound: CCCOC(=O)N1CCN(C(=O)c2ccc3c(Cl)c4c(nc3c2)CCC(CCN)C4)CC1 (stereo not given)
IC50 (HPAC): 11000 nM
IC50 (CFPAC-1): 11000 nM

IC50 (MIA PaCa-2): 220 nM
Compound: CCN(CC)CCCNc1ccc2c(c1)[nH]c1c2c[n+](C)c2ccc(NCCCN(CC)CC)cc12

IC50 (U-937): 1500 nM
Compound: O=C(Nc1cccc(Nc2ccnc3ccccc23)c1)c1cccc(Nc2ccnc3ccccc23)c1

IC50 (HeLa): 300 nM
IC50 (HT-1080): 300 nM
IC50 (U2OS): 300 nM
Compound: NCCCOc1cc(NC(=O)c2cc(Cl)cc(C(=O)Nc3cc(OCCCN)c4ccccc4n3)n2)nc2ccccc12
IC50 (WI-38): 300 nM

Compound: CCCCCCOc1ccc(/C=N/Nc2cc(C)nc3ccc(Cl)cc23)cc1
IC50 (MGC-803): 2200 nM
IC50 (HepG2 [10]): 4880 nM
IC50 (T-24): 3170 nM
IC50 (NCI-H460): 3220 nM

IC50 (HeLa): 11000 nM
IC50 (A549 [7]): 9120 nM
IC50 (MCF7): 11400 nM
IC50 (B16-F10): 9760 nM
IC50 (Jurkat E6.1): 7190 nM
IC50 (Histone deacetylase 8): 1.74 nM
Compound: COc1cc(NC(=O)NOCCCCCC(=O)NO)c2nc(OC)cc(C)c2c1
IC50 [11]: 590 nM

IC50 (A549 [7]): 5330 nM
IC50 [12]: 2.73 nM
IC50 (PC-3 [13]): 3280 nM
Compound: O=C(NO)c1ccc(CNc2cccc3cccnc23)cc1

Compound: CN(C)CCNc1nc2cc(O)ccc2c2c1C(=O)c1ccccc1-2
IC50 (DNA topoisomerase 1 [14]): 2000 nM
IC50 [15]: 6500 nM
IC50 [16]: 1.1 nM
IC50 (KB): 9.6 nM

Compound: O[C@@H]1[C@@H](O)[C@H](Oc2ccc(O[C@@H]3O[C@H](COc4cccc5cccnc45)[C@@H](O)[C@H](O)[C@H]3O)cc2)O[C@H](COc2cccc3cccnc23)[C@H]1O
Activity (MDA-MB-231 [17]): 34.9%

IC50 (DNA topoisomerase 1 [18]): 278 nM
Compound: N#CC1=C(N)Oc2c(ccc3ccccc23)C1c1cc2ccccc2n2nnnc12 (stereo not given)
GI50 (SR): 232 nM
GI50 (HL-60): 260 nM
GI50 (MDA-MB-435): 300 nM

IC50 [19]: 12.5 nM
Compound: COc1cc2c(Oc3ccc(NC(=O)C4CCN(c5ccc(F)cc5)C4=O)cc3)ccnc2cc1OCCCCCCC(=O)NO (stereo not given)
IC50 (HCT-116 [20]): 0.54 nM
IC50 (A549 [21]): 1080 nM

Source: ChEMBL document CHEMBL5241080, “Quinoline anticancer agents active on DNA and DNA-interacting proteins: From classical to emerging therapeutic targets” (Eur J Med Chem, 2021)
